Laboratory results reported in ChEMBL document CHEMBL5725356, “Anti-fibrotic pyridinones” (2017).

assay: ET-1 Assay: Fibroblasts (primary human lung and dermal, HFL-1, 3T3 etc) are seeded in 96-well plates at ~15000 cells/well and serum starved for 0-48 hours. After media exchange, compounds serially diluted in DMSO are added to the cells. After a brief incubation of ~30 min, stimulants (TGFb, serum, LPA etc) are added followed by further incubation for 16-48 hours. Media is then harvested and stored frozen in plate format for later endothelin-1 (ET-1) determination by ELISA. Toxicity measurements are made using the ATPlite kit (Perkin-Elmer). ET-1 is quantified using an ELISA kit (R&D Systems). The amount of ET-1 produced in the assay wells are back-calculated using the ELISA standard. The ability of a compound to inhibit ET-1 production is typically analyzed by fitting dose-response curves to a 4-parameter logistic function to obtain an EC50 value.; conditions: HFL1

Row | SMILES | EC50
1 | O=c1ccc(C(F)(F)F)cn1-c1cccc(F)c1 | > 200 µM
2 | Cc1cc(=O)n(-c2ccc(C(F)(F)F)cc2)cc1-c1cnn(C)c1 | in the range around 125 µM
3 | COc1ccc(-n2cc(C)ccc2=S)cc1 | > 200 µM
4 | Cc1cc(=O)n(-c2ccc(OC(F)(F)F)cc2)cc1-c1ccc2ocnc2c1 | < 50 µM
5 | O=c1ccc(-c2cccc(Cl)c2)cn1-c1ccccc1 | in the range around 125 µM
6 | CC(C)c1cc(=O)n(-c2ccc(OC(F)(F)F)cc2)cc1-c1cnn(C)c1 | in the range around 125 µM
7 | Cc1cc(=O)n(-c2cccc(OC(F)(F)F)c2)cc1-c1cnn(C)c1 | > 200 µM
8 | Cn1cc(-c2cnc(=O)n(-c3ccccc3)c2)cn1 | > 200 µM
9 | Cn1cc(-c2cn(-c3ccc(OC(F)(F)F)cc3)c(=O)cc2C(F)(F)F)cn1 | > 200 µM
10 | Cc1ccc(=O)n(-c2ccccc2F)c1 | > 200 µM
11 | Cc1ccc(=S)n(-c2ccc(OC(C)C)cc2)c1 | > 200 µM
12 | C#Cc1ccc(=O)n(-c2ccccc2)c1 | > 200 µM
13 | CCOc1ccc(-n2cc(-c3cccc(Cl)c3)ccc2=O)c(C)c1 | < 50 µM
14 | CC(C)Oc1ccc(-n2cc(-c3cccc(Cl)c3)ccc2=O)cc1 | < 50 µM
15 | Cc1cc(=O)n(-c2cccc3c2OCO3)cc1-c1cnn(C)c1 | > 200 µM
16 | O=c1ccc(-c2cccc(Cl)c2)cn1-c1ccccc1F | in the range around 125 µM
17 | O=c1ccc(-c2ccccc2)cn1-c1ccc(F)cc1 | in the range around 125 µM
18 | O=c1ccc(-c2ccccc2)cn1-c1ccccc1Cl | in the range around 125 µM
19 | Cc1cc(=O)n(-c2ccc3c(c2)OCCO3)cc1-c1cnn(C)c1 | > 200 µM
20 | Cc1cc(=O)n(-c2ccc(OC(F)(F)F)cc2)cc1-c1ccc2ncsc2c1 | in the range around 125 µM
21 | COc1ccc(-c2ccc(=O)n(-c3cncnc3)c2)cc1 | > 200 µM
22 | O=c1ccc(-c2ccccc2)cn1-c1cncnc1 | > 200 µM
23 | COc1cccc(-n2cc(C(F)(F)F)ccc2=O)c1 | > 200 µM

Row | SMILES | EC50
24 | Cc1cc(=O)n(-c2ccc(OC(F)(F)F)cc2)cc1-c1ccc2nccn2c1 | in the range around 125 µM
25 | CC(C)Oc1ccc(-n2cc(Br)ccc2=O)cc1 | > 200 µM
26 | O=c1ccc(C(F)(F)F)cn1-c1ccccc1Cl | > 200 µM
27 | Cc1cc(=O)n(-c2ccc3scnc3c2)cc1-c1cnn(C)c1 | > 200 µM
28 | O=c1ncc(-c2ccc(F)cc2)cn1-c1ccc(OC(F)(F)F)cc1 | > 200 µM
29 | Cc1cc(=O)n(-c2ccc(OC(F)(F)F)cc2)cc1-c1cnsc1 | > 200 µM
30 | Cc1cc(=O)n(-c2ccc(OC(F)(F)F)cc2)cc1-c1ccnnc1 | in the range around 125 µM
31 | O=c1ccc(-c2ccccc2)cn1-c1ccncc1 | > 200 µM
32 | Cc1cc(=O)n(-c2ccc(OC(F)(F)F)cc2)cc1-c1cscn1 | in the range around 125 µM
33 | Cc1cc(=O)n(-c2ccccc2F)cc1-c1cnn(C)c1 | > 200 µM
34 | Cc1cc(=O)n(-c2cccc3c2OCCO3)cc1-c1cnn(C)c1 | in the range around 125 µM
35 | Cc1cc(=O)n(-c2ccc(OC(F)(F)F)cc2)cc1-c1cccnc1 | > 200 µM
36 | O=c1ccc(C(F)(F)F)cn1-c1ccc(OC(F)(F)F)cc1 | > 200 µM
37 | CC(=O)Nc1cccc(-n2cc(C(F)(F)F)ccc2=O)c1 | > 200 µM
38 | Cc1cc(=O)n(-c2ccc(OC(F)(F)F)cc2)cc1-c1c(C)nn(C)c1C | in the range around 125 µM
39 | Cc1cc(=O)n(-c2ccc(OC(F)(F)F)cc2)cc1-c1ccc2cn(C)nc2c1 | in the range around 125 µM
40 | O=c1ccc(Br)cn1-c1cccc(F)c1 | > 200 µM
41 | Cc1cc(=O)n(-c2ccc(OC(F)(F)F)cc2)cc1-c1ccc2nonc2c1 | in the range around 125 µM
42 | O=c1ncc(-c2ccc(F)cc2)cn1-c1ccccc1 | in the range around 125 µM
43 | Cc1cc(=O)n(-c2ccc(OC(F)(F)F)cc2)cc1-c1cccc2ncsc12 | < 50 µM
44 | Cc1ccc(=S)n(-c2ccc(F)cc2)c1 | > 200 µM
45 | O=c1ccc(-c2cccc(Cl)c2)cn1-c1ccncc1 | > 200 µM
46 | CC(=O)Nc1cccc(-n2cc(Br)ccc2=O)c1 | > 200 µM

Row | SMILES | EC50
47 | O=c1ccc(C(F)(F)F)cn1-c1cncnc1 | > 200 µM
48 | O=c1ccc(-c2cncnc2)cn1-c1ccccc1F | > 200 µM
49 | O=c1ccc(-c2cccc(Cl)c2)cn1-c1cccc(F)c1 | < 50 µM
50 | COc1cc(-n2cc(-c3cn[nH]c3)c(C)cc2=O)cc(OC)c1OC | > 200 µM
51 | Cc1cc(-c2ccc(F)cc2)cn(-c2ccc(OC(F)(F)F)cc2)c1=O | in the range around 125 µM
52 | CCc1cc(=O)n(-c2ccc(OC(F)(F)F)cc2)cc1-c1cnn(C)c1 | in the range around 125 µM
53 | Cc1cc(-c2cnn(C)c2)cn(-c2ccc(OC(F)(F)F)cc2)c1=O | in the range around 125 µM
54 | Cc1cc(=O)n(-c2ccc(Cl)cc2C)cc1-c1cnn(C)c1 | in the range around 125 µM
55 | Cc1cc(=O)n(-c2ccc(OC(F)(F)F)cc2)cc1-c1nnn(C)n1 | > 200 µM
56 | Cc1cc(=O)n(-c2ccc3c(c2)OCO3)cc1-c1cnn(C)c1 | > 200 µM
57 | COc1cccc(-n2cc(Br)ccc2=O)c1 | > 200 µM
58 | O=c1ccc(-c2ccc(F)cc2)cn1-c1ccccc1F | in the range around 125 µM
59 | Cc1cc(=O)n(-c2ccc3ocnc3c2)cc1-c1cnn(C)c1 | > 200 µM
60 | COc1ccc(-c2ccc(=O)n(-c3ccccc3F)c2)cc1 | > 200 µM
61 | Cc1cc(=O)n(-c2ccc(OC(F)(F)F)cc2)cc1-n1ccnc1 | > 200 µM
62 | CC(C)c1ccc(=O)n(-c2ccccc2)c1 | > 200 µM
63 | COc1ccc(-n2cc(-c3ccc(S(N)(=O)=O)cc3)ccc2=O)cc1 | > 200 µM
64 | CCOc1ccc(-n2cc(Br)ccc2=O)c(C)c1 | > 200 µM
65 | Cc1cc(-c2ccc(F)cc2)cn(-c2ccccc2)c1=O | < 50 µM
66 | Cc1cc(=O)n(-c2ccc(OC(F)(F)F)cc2)cc1-c1cccc2scnc12 | > 200 µM
67 | O=c1ccc(Br)cn1-c1ccc(OC(F)(F)F)cc1 | > 200 µM
68 | Cc1cc(=O)n(-c2cccc(C(F)(F)F)c2)cc1-c1cnn(C)c1 | > 200 µM
69 | Cc1cc(=O)n(-c2ccc(OC(F)(F)F)cc2)cc1-c1ccnn1C | > 200 µM

Row | SMILES | EC50
70 | COc1ccc(-c2ccc(=O)n(-c3ccc(Cl)cc3)c2)cc1 | in the range around 125 µM
71 | O=c1ccc(-c2cncnc2)cn1-c1cccc(F)c1 | > 200 µM
72 | COc1ccc(-c2ccc(=O)n(-c3ccccc3Cl)c2)cc1 | in the range around 125 µM
73 | Cc1cc(=O)n(-c2ccc(OC(F)(F)F)cc2)cc1-c1nn[nH]n1 | > 200 µM
74 | O=c1ccc(Br)cn1-c1cccc(C(F)(F)F)c1 | > 200 µM
75 | O=c1ccc(-c2cccc(Cl)c2)cn1-c1ccccc1Cl | < 50 µM
76 | O=c1ccc(-c2cccc(Cl)c2)cn1-c1ccc(Cl)cc1 | < 50 µM
77 | COc1cccc(-n2cc(-c3cccc(Cl)c3)ccc2=O)c1 | < 50 µM
78 | O=c1ccc(-c2cncnc2)cn1-c1ccc(F)cc1 | > 200 µM
79 | Cc1cc(=O)n(-c2ccc(OC(C)C)cc2C)cc1-c1cnn(C)c1 | > 200 µM
80 | NS(=O)(=O)c1ccc(-c2ccc(=O)n(-c3ccc(Cl)cc3)c2)cc1 | > 200 µM
81 | CC(C)Oc1ccc(-n2cc(-c3ccc(F)cc3)ccc2=O)cc1 | in the range around 125 µM
82 | O=c1ccc(-c2cccc(Cl)c2)cn1-c1cccc(C(F)(F)F)c1 | < 50 µM
83 | Cc1cc(=O)n(-c2ccc(OC(F)(F)F)cc2)cc1-c1ccc2c(ccn2C)c1 | > 200 µM
84 | COc1cccc(-n2cc(-c3ccc(S(N)(=O)=O)cc3)ccc2=O)c1 | > 200 µM
85 | Cc1cc(=O)n(-c2ccc(OC(F)(F)F)cc2)cc1-c1ccc2scnc2c1 | < 50 µM
86 | Cc1cc(=O)n(-c2ccc(OC(F)(F)F)cc2)cc1-c1nnnn1C | > 200 µM
87 | Cc1cc(=O)n(-c2ccc(OC(F)(F)F)cc2)cc1-c1cnc2nccn2c1 | > 200 µM
88 | Cc1cc(=O)n(-c2ccc(OC(F)(F)F)cc2)cc1-c1cn(C)nc1C(F)(F)F | in the range around 125 µM
89 | COc1ccc(-n2cc(-c3cccc(Cl)c3)ccc2=O)cc1 | < 50 µM
90 | CCOc1ccc(-n2cc(-c3ccccc3)ccc2=O)c(C)c1 | in the range around 125 µM
91 | Cc1ccc(=S)n(-c2cccc(F)c2)c1 | > 200 µM
92 | Cc1cc(-c2cnn(C)c2)cn(-c2ccccc2)c1=O | in the range around 125 µM

Row | SMILES | EC50
93 | O=c1ccc(-c2ccc(F)cc2)cn1-c1ccccc1Cl | > 200 µM
94 | NS(=O)(=O)c1ccc(-c2ccc(=O)n(-c3cccc(C(F)(F)F)c3)c2)cc1 | > 200 µM
95 | Cc1cc(=O)n(-c2ccc3[nH]cnc3c2)cc1-c1cnn(C)c1 | > 200 µM
96 | CCOc1ccc(-n2cc(-c3cn[nH]c3)c(C)cc2=O)c(C)c1 | in the range around 125 µM
97 | O=c1ccc(-c2ccc(F)cc2)cn1-c1cccc(C(F)(F)F)c1 | in the range around 125 µM
98 | Cc1cc(C)c(=O)n(-c2ccccc2)c1 | > 200 µM
99 | COc1ccc(-c2ccc(=O)n(-c3cccc(OC)c3)c2)cc1 | in the range around 125 µM
100 | CC(C)Oc1ccc(-n2cc(-c3ccc(S(N)(=O)=O)cc3)ccc2=O)cc1 | > 200 µM
101 | O=c1ccc(-c2ccccc2)cn1-c1cccc(F)c1 | > 200 µM
102 | CCOc1ccc(-n2cc(C(F)(F)F)ccc2=O)c(C)c1 | in the range around 125 µM
103 | O=c1ccc(Br)cn1-c1ccc(F)cc1 | > 200 µM
104 | Cc1ccc(=S)n(-c2ccc(OC(F)(F)F)cc2)c1 | in the range around 125 µM
105 | Cc1ccc(=O)n(-c2cc(F)c(F)c(F)c2)c1 | > 200 µM
106 | O=c1ccc(-c2ccnnc2)cn1-c1ccc(OC(F)(F)F)cc1 | in the range around 125 µM
107 | O=c1cc2ccccc2cn1-c1ccccc1 | in the range around 125 µM
108 | Cc1cc(=O)n(-c2ccc(OC(F)(F)F)cc2)cc1-c1ccncc1 | > 200 µM
109 | O=c1ccc(Br)cn1-c1ccc(Cl)cc1 | > 200 µM
110 | COc1cc(-n2cc(-c3cnn(C)c3)c(C)cc2=O)cc(OC)c1OC | > 200 µM
111 | Cc1cc(=O)n(-c2ccc(OC(F)(F)F)cc2)cc1-c1ccc2ccn(C)c2c1 | < 50 µM
